One test has as its target T1, SGK1 (Homo sapiens, UniProt O00141).
T1 sequence (O00141 1-431): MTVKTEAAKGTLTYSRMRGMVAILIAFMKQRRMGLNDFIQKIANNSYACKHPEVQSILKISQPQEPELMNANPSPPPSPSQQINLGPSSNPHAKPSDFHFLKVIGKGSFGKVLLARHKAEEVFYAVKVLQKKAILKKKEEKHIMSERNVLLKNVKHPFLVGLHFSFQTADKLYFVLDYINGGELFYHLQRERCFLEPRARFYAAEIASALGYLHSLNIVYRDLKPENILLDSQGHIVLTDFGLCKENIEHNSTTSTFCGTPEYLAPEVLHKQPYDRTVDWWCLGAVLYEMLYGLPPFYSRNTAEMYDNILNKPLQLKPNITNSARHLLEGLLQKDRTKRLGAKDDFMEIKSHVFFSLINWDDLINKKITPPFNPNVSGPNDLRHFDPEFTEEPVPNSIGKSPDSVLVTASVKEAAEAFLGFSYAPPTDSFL
Briefly: Nanosyn in vitro kinase profiling: SGK1. It is filed as biochemical. Conditions: for inhibition at 1 µM: compound at 1 μM. On the procedure:
(§1) This was confirmed by in vitro profiling against a panel of kinases, with compound 2 only showing potent inhibition of EGFR and Ab1 (Table 2).
(§2) In vitro Kinome Screen. In vitro profiling of compound 2 at 100 nM was conducted by Nanosyn.

For a further test, the target named is CSK (Homo sapiens, UniProt P41240). Description: Nanosyn in vitro kinase profiling: CSK. It counts as biochemical. Conditions: for inhibition at 1 µM: compound at 1 μM. The procedure:
as §1, §2

For the next test, the target named is P38-ALPHA (Homo sapiens, UniProt Q16539). Description: Nanosyn in vitro kinase profiling: P38-ALPHA. The following applies: for inhibition at 1 µM: compound at 1 μM. It counts as biochemical. The procedure: as §1, §2
Chain of P38-ALPHA (Q16539 whole entry): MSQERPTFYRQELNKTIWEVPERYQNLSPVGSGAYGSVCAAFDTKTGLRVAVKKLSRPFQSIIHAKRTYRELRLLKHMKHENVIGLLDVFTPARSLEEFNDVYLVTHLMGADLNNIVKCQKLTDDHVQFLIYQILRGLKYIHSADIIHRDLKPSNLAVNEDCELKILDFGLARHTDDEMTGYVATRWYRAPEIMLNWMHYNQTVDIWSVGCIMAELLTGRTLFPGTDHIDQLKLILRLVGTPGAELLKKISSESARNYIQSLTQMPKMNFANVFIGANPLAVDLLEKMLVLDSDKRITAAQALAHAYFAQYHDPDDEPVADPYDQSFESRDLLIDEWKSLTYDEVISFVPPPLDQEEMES
The target in another test is PIM-1-KINASE (Homo sapiens, UniProt P11309). Description: Nanosyn in vitro kinase profiling: PIM-1-KINASE. It counts as biochemical. The following applies: for inhibition at 1 µM: compound at 1 μM. The procedure: as §1, §2
Chain of PIM-1-KINASE (P11309 whole entry): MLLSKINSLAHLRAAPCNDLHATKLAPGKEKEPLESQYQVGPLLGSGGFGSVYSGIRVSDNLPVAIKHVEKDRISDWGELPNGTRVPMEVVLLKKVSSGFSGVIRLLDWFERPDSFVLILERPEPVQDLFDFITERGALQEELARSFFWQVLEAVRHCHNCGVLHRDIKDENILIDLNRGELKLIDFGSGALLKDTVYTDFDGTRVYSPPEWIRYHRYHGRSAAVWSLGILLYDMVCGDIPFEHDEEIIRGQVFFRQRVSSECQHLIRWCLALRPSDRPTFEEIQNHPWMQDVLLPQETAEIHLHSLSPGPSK
A further test deals with T2, MST1 (Homo sapiens, UniProt Q13043).
T2 sequence (Q13043 1-487): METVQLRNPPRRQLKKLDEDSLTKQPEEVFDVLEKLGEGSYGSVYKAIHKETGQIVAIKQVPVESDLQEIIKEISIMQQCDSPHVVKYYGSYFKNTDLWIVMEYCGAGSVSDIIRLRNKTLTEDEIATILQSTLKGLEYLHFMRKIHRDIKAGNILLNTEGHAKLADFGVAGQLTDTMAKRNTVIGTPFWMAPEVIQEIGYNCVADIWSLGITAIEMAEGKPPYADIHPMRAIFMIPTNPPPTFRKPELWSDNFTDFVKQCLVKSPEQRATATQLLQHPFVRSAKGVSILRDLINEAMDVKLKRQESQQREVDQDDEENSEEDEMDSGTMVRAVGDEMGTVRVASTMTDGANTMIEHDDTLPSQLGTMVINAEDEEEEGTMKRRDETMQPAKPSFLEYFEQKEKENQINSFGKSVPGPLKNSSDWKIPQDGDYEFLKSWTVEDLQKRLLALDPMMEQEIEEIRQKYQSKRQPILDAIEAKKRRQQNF
Briefly: Nanosyn in vitro kinase profiling: MST1. It is filed as biochemical. Conditions: for inhibition at 1 µM: compound at 1 μM. The procedure: as §1, §2

The target of another test is MET (Homo sapiens, UniProt P08581). Briefly: Nanosyn in vitro kinase profiling: MET. It is filed as biochemical. The following applies: for inhibition at 1 µM: compound at 1 μM. The procedure:
as §1, §2

The test system of test [1] is HER2/HER3 heterodimer signaling in MCF-7 cells. Description: HER2/HER3 signaling in MCF-7 cells, pre-treat vs simultaneous NRG addition. It counts as cell-based. The procedure:
FIGS. 2A-2D. […] FIG. 2B: NRG rescues the 72 h proliferation of CW-2 cells, which contain an activating mutation in HER3 (E928G), from HER2 inhibitors (mean±SD, n=3).
FIG. 17. MCF-7 cells were serum starved for 24 h and then either treated with compound 3 for 15 min followed by a 15 min NRG stimulation (15 min pre-treat), or compound 3 and NRG were added simultaneously for 15 min (simultaneous addition).

For test [2], the system named is HER2YF/HER3E928G (2YF/3EG) Ba/F3 cells. Description: Ba/F3 proliferation assay, 2YF/3EG +/- NRG. The following applies: + NRG vs no NRG. It is filed as cell-based. An excerpt:
Consistent with the results in the HER2 overexpressing cell lines, CW-2 cells that harbor a HER3-activating mutation were equally sensitive to compound 3+/−NRG in both proliferation and signaling assays (FIGS. 6A-6B). […] To further evaluate the potential of compound 3 against HER2 mutants within a HER2/HER3 heterodimer we transduced wt HER3 containing Ba/F3 cells with reported HER2 oncogenic mutants in the HER2YF construct.
For HER2YF/3EG Ba/F3 cells were selected according to the protocol for the HER2YF/3TM Ba/F3's with the exception that no NRG was supplemented in the media during IL-3 independent selection.
Proliferation Assays. For adherent cell lines, cells were plated onto opaque white 96 well plates (Greiner cat #655083) and allowed to adhere overnight. The following day media was changed to fresh media that contained either DMSO or the indicated concentration of drug plus NRG (50 ng/mL final concentration) as indicated. Plates were incubated at 37° C. for 72 h and proliferation was read out using Cell Titer Glo (Promega) according to the manufacturer's protocol. For Ba/F3 cell proliferation, cells, drug dilution, and any necessary growth factors (10 ng/mL IL-3 or 6.25 ng/mL NRG) were combined in a well of a 96 well plate. Plates were incubated at 37° C. for 48 h and proliferation was read out using Cell Titer Glo according to the manufacturer's protocol. For all normalized assays, proliferation was normalized to the DMSO control condition. All graphs were plotted in GraphPad Prism 6 and fit with a non-linear regression of the log(inhibitor) vs response with a variable slope where shown. All graphs are averages (+/−standard deviation) of biological triplicates each performed in technical triplicate unless otherwise noted. If only one biological replicate was performed standard deviations were derived from the technical replicates.

We go through three molecules from US20190119284A1, “ErbB Inhibitors and Uses Thereof” (The Regents of the University of California, priority 2016, published 2019).

Chain of MET (P08581 25-1390): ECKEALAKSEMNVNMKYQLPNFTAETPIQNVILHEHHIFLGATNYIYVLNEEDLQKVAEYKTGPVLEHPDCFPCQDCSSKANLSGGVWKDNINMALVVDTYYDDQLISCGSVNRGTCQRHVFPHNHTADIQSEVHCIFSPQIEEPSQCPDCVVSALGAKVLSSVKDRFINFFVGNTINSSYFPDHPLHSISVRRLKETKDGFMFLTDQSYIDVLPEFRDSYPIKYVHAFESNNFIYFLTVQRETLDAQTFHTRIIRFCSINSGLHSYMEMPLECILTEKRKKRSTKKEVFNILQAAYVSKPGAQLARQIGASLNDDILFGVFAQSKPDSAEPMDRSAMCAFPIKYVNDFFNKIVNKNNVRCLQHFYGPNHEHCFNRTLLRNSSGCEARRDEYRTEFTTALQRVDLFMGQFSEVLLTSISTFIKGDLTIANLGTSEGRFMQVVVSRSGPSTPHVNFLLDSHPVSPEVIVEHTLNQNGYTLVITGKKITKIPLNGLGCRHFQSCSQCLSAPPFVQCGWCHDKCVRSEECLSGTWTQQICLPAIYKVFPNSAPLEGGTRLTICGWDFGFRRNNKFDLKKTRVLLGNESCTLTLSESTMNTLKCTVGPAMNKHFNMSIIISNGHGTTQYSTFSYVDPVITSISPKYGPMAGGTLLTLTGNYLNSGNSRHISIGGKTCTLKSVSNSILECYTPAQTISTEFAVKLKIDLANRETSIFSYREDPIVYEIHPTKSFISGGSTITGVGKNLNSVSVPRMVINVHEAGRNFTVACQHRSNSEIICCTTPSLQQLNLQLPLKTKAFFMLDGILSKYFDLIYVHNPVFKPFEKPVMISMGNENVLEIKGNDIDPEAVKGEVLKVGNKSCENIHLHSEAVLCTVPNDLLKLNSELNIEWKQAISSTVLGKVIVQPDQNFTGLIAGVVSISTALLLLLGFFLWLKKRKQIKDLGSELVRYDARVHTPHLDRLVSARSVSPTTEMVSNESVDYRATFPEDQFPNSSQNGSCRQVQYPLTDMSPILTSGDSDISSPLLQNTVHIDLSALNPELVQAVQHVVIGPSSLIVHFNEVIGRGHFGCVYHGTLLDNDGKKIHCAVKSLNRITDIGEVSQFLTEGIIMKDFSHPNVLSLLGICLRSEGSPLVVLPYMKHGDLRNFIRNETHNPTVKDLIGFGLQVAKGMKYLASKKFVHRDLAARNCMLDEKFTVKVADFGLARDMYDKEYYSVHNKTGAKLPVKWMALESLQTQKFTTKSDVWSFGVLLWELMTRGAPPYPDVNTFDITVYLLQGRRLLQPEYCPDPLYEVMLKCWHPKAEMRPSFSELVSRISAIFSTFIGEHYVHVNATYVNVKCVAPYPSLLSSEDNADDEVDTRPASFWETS
Chain of CSK (P41240 whole entry, species assumed): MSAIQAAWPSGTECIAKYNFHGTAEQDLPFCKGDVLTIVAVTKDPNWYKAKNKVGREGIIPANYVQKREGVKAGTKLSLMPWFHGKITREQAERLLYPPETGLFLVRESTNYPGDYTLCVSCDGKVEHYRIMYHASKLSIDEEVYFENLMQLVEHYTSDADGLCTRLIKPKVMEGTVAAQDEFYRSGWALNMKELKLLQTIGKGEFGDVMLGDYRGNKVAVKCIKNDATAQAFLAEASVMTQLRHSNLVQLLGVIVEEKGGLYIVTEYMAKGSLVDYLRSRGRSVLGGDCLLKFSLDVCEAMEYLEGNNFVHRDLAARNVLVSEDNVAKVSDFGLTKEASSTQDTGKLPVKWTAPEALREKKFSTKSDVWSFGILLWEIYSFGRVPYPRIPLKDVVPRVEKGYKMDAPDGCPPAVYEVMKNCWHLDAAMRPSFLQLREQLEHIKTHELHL

With `COc1ccc(-c2ccco2)cc1Nc1ncnc2[nH]nc(-c3ccco3)c12` [compound 2, 3-(furan-2-yl)-N-(5-(furan-2-yl)-2-methoxyphenyl)-1H-pyrazolo[3,4-d]pyrimidin-4-amine], the inhibition at 0.1 µM on SGK1 (compound at 100 nM) stood at 14.4%; against CSK (compound at 100 nM), 6.96%; against P38-ALPHA (compound at 100 nM), 6.61%; at PIM-1-KINASE (compound at 100 nM) it was 4.08%; on MST1 (compound at 100 nM), 3.85%; against MET (compound at 100 nM), 2.04%. Further, the inhibition at 1 µM against SGK1 came out at 53.4%; against CSK, 24.8%; against P38-ALPHA it was 12.9%; at PIM-1-KINASE it was 8.71%; against MST1, 19.9%; at MET, 10.1%.

For the molecule `COc1ccc(-c2ccoc2)cc1Nc1ncnc2[nH]cc(-c3cc[nH]n3)c12` [compound 3, N-(5-(furan-3-yl)-2-methoxyphenyl)-5-(1H-pyrazol-3-yl)-7H-pyrrolo[2,3-d]pyrimidin-4-amine], the “shift in ability to inhibit signaling +/- pre-incubation” value in test [1] (MCF-7, 15 min pre-treat vs simultaneous NRG) is recorded as “little to no shift”. In addition, the “reduction of sensitivity on addition of NRG” value in test [2] is on record as “less than 5 fold”. Moreover, the inhibition at 1 µM on SGK1 stood at 31%; against CSK, 62%; against P38-ALPHA it was 2%; against PIM-1-KINASE, 7%; against MST1, 84%; against MET it was 16%.

As for `CS(=O)(=O)CCNCc1ccc(-c2ccc3ncnc(Nc4ccc(OCc5cccc(F)c5)c(Cl)c4)c3c2)o1` [lapatinib], the “efficacy on signaling, 15 min pre-treat vs simultaneous addition with NRG” value in test [1] (MCF-7, serum starved 24 h) is listed as “reduced efficacy of lapatinib when simultaneously added with NRG”. Also, the “reduction of sensitivity on addition of NRG” value in test [2] is reported as 55 fold.
